In patent publication US10308631B2, “Selective anti-cancer compounds” (NATIONAL UNIVERSITY OF SINGAPORE, priority 2015, dated 2019):

Experiments:
[1] = test system: HeLa cells (mitotic spindles, β-tubulin/DAPI); experiment: Immunofluorescence analysis of mitotic spindles and chromosomes; assay type: cell-based, human; conditions: 6 h, Compound 1 2.5 μM, CQ 15 or 25 μM
Protocol: HeLa cells, treated with Compound 1 (a131) at 2.5 μM (FIG. 3b), chloroquine (CQ) at 15 μM (FIG. 3c) or 25 μM (FIG. 3d), or DMSO (FIG. 3a) for 6 h, were fixed in methanol and subjected to immunofluorescence analysis using antibodies against β-tubulin to visualize proper formation of mitotic spindles. The condensed mitotic chromosomes were visualized by counterstaining with DAPI. Only Compound 1 (a131)-treated HeLa cells arrested in mitosis with misaligned chromosomes and disorganized spindles (FIG. 3b). The bars in FIGS. 3a-d represent 5 μm in length.
To confirm the inhibitory mitotic progression ability, HeLa cervical cancer cells as cultured above were treated with Compound 1 (2.5 μM, DMSO), CQ (15 or 25 μM, DMSO) or DMSO for 6 h. The treated cells were fixed in methanol and subjected to immunofluorescence analysis using antibodies against β-tubulin (Abcam, Cat#ab52623) to visualize proper formation of mitotic spindles. The condensed mitotic chromosomes were visualized by counterstaining with DAPI.

[2] = test system: HCT-15 human colon adenocarcinoma xenografts; experiment: Tumour xenograft efficacy, tumour volume; assay type: in vivo, mice; conditions: HCT15 xenografts; intravenously 40 mg/kg, 3 times every 4 days; vs vehicle
Protocol: A, B: is a graphical representation of tumour volumes estimated periodically as indicated. Mice bearing established tumour xenografts using HCT15 or MDA-MB-231 cells were treated orally (PO) or intraperitoneally (IP) twice a day with the indicated doses of Compound 1 or Compound 16 for 12 or 15 days. Paclitaxel (PTX) was given intravenously at dose of 40 mg/kg, 3 times every 4 days. Error bars show ±S.D. from mean tumour volumes obtained from 6 mice. Student's t-test was performed to determine the statistical significance (*=p<0.005). C: is a bar graph showing quantification of cells (n>100 per condition) with misaligned chromosomes and multipolar mitotic-spindles. […] tumour sections treated with Compound 16 (80 mg/kg) or control vehicle for 12 days were stained with anti-β-tubulin antibodies and DAPI. The percentage of cells with misaligned chromosomes and multipolar mitotic-spindles was quantified and plotted with mean values±S.D.
Mice bearing established tumor xenografts using HCT15 or MDA-MB-231 cells were treated orally (PO) or intraperitoneally (IP) twice a day with the indicated doses of Compound 1 or its derivative Compound 16 (b5) for 12 or 15 days, respectively. For comparison, paclitaxel (PTX) was given intravenously to mice bearing established tumour xenografts using HCT15 at dose of 40 mg/kg, 3 times every 4 days.

[3] = test system: non-transformed normal and oncogene-transformed human fibroblast BJ cell lines; experiment: Chemoprotection from paclitaxel, Annexin V/PI FACS; assay type: cell-based; conditions: paclitaxel treatment alone, 50 nM
Protocol: Normal and transformed BJ cells were treated with Compound 25 at 5 μM. 48 h after treatment, cells were further treated with (A) 50 nM paclitaxel (PTX) or (B) etoposide, at the concentrations shown, for additional 48 or 72 h, respectively. A: cells were collected, stained with Annexin V together with propidium iodide (PI) and subjected to FACS analysis. […] Student's t-test was performed to determine the statistical significance (***=P<0.0001, **=P<0.001, *=P<0.05, n.s.=no significance).
The chemoprotective efficacies of the Compounds in Group 2 were further evaluated by measuring their ability to protect non-transformed normal cells, but not cancer and oncogene-transformed counterparts, from the most well-known as well as clinically-relevant chemotherapeutic agents, paclitaxel and etoposide. To determine this, isogenic non-transformed normal and oncogene-transformed human fibroblast BJ cell lines, cultured in DMEM supplemented with 10% FBS, were pre-treated with Compound 25 (a166—Group 2) at 5 μM. 48 h after treatment, cells were further treated with paclitaxel (PTX; FIG. 13A) or etoposide (FIG. 13B) for an additional 72 h. […] For etoposide, cell viability was determined using MTT assay and plotted in comparison with DMSO control vehicle with mean values±S.D. (n=4).

CCN(CC)CCCC(C)Nc1ccnc2cc(Cl)ccc12 (stereo not drawn) [CQ, chloroquine, reference compound]
mitotic arrest, chromosome alignment and mitotic spindles [1]: no such effects were seen

CC(=O)O[C@H]1C(=O)[C@@]2(C)[C@H]([C@H](OC(=O)c3ccccc3)[C@]3(O)C[C@H](OC(=O)[C@H](O)[C@@H](NC(=O)c4ccccc4)c4ccccc4)C(C)=C1C3(C)C)[C@]1(OC(C)=O)CO[C@@H]1C[C@@H]2O [paclitaxel, reference compound]
anti-tumour effect (tumour volume) [2]: did not show significant anti-tumour effects
selectivity of cell death for oncogene-transformed BJ cells [3]: showed a minimal selectivity for oncogene-transformed BJ cells
